# “And” between values parts separate entries of the source, which are not always exact repeats. Equal entries are not always repeated. “Also recorded” adds a separate entry of the source. No end group written: not given here.
# Columns and labels:
# [1] = system: peritoneal macrophages of male ICR mice; assay type: in vivo, mouse; details: 7-day im 0.15 and 0.5 mg/kg
# Protocol: For carrying out these experiments 90 male ICR mice were used, they were divided equally into three groups (30 animals per group) for each study and in these groups they were subdivided into subgroups of 10 mice each and treated as follows: mice of the first subgroup were injected with normal saline im, the second subgroup animals were treated with Az (0.15 mg/kg im) and the animals of the third subgroup were treated with Az (0.50 mg/kg im). The drugs were injected into the quadriceps muscle of the thigh (musculus quadriceps femoris) daily for seven days (1 mL/kg).
# On the next day after the seven-day course of the Az administration, the mice of the third group (30 animals) were injected intraperitoneally with 2 mL of ink particles suspension. After 10 min the mice were euthanized (CO2 inhalation) with a subsequent isolation of the peritoneal exudate from their abdominal cavity. In the exudate (1 μL) the total number of peritoneal macrophages and the number of the ink particle-containing (phagocytic) cells among them were counted using a Gorjaev’s chamber.
# [2] = system: GABAA (α1β3γ2 or α2β3γ2) receptors; details: concentration up to 100 μM; cited from earlier work
# 5-HT3 receptors = details: concentration up to 10 μM; cited from earlier work
# [3] = molecular target: muscle-type Torpedo nicotinic acetylcholine receptor (nAChR); details: cited from earlier work
# [4] = system: human muscle-type nAChR fetal form α1β1γδ; details: Xenopus oocytes; cited from earlier work
# [5] = system: hprt gene of CHO-k1 cells
# male ICR mice = assay: Forelimb grip strength test (muscle relaxant effect) after intramuscular administration; assay type: in vivo, mouse; details: for effect on forelimb muscular strength: vs saline control
# Protocol: 40 male ICR mice were divided equally into four groups: one control and three experimental groups. Animals of the control and experimental groups were treated with normal saline and with Az at doses of 0.03, 0.1 and 0.3 mg/kg, respectively. In addition 6 mice were treated with Az at dose of 0.01 mg/kg. The corresponding solutions were injected into the triceps muscles of the mouse forelimbs at a volume of 0.5 mL/kg per each limb. For all animals their basic forelimb grip strength was recorded before the substance administration with a 1027 grip strength meter (Columbus Instruments, Columbus, OH, USA). Further, their grip strength was measured 5, 10, 15, 20, 30, 60, 90 min after the Az (or normal saline) im administration.
# Rocuronium was administered intramuscularly as described for the measurement of acute toxicity (Section 5.4.1). Muscle strength was assessed prior to administration of the substance and then 1, 2, 3, 4, 5 min after administration.
# [6] = molecular target: T1, human neuronal homopentameric α7 nAChR (Homo sapiens, UniProt P36544); assay: Calcium imaging of ACh-evoked [Ca2+]i rise in Neuro2a cells expressing α7 nAChR; assay type: cell-based; details: 10 μM ACh (EC50); transfected Neuro2a cells, PNU120596 10 μM; 15 min preincubation; mean ± SEM, 4 independent experiments; read-out: IC50, inhibition of ACh-evoked calcium response of α7 nAChR
# T1 construct: expressed in transfected cells; host or cells: mouse neuroblastoma Neuro2a, transient transfection (α7 nAChR-pCEP4) with human Ric-3 (Ric3-pCMV6-XL5, OriGene)
# T1 sequence (P36544 23-502): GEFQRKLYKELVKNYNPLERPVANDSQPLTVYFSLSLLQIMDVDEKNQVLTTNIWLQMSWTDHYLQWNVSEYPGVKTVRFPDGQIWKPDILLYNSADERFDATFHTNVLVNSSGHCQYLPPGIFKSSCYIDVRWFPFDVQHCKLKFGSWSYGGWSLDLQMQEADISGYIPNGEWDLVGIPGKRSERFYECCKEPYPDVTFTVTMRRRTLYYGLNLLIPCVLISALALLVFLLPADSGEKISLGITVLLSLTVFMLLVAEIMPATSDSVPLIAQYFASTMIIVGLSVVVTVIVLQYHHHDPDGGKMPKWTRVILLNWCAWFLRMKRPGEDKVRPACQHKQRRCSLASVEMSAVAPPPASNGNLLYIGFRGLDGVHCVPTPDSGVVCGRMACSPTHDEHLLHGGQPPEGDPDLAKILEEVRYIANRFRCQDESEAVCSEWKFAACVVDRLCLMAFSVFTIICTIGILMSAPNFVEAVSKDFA
# Protocol: Mouse neuroblastoma Neuro2a cells were purchased from the Russian collection of cell cultures (Institute of Cytology, Russian Academy of Sciences, Saint Petersburg, Russia). Cells were cultured in DMEM (Paneco, Moscow, Russia) supplemented with 10% FBS. They were sub-cultured the day before transfection and were plated at a density of 10,000 cells per well in a 96-well black plate. On the next day Neuro2a cells were transiently transfected with plasmids coding mouse muscle α1β1δε nAChR (pRBG4-vector) and a fluorescent calcium sensor Case12 (pCase12-cyto vector, Evrogen, Moscow, Russia) in a molar ratio of 2:1 following a lipofectamine transfection protocol (ThermoFisher Scientific, Waltham, MA, USA). […]
# The plates were transferred to the multimodal microplate reader Hidex Sence (Hidex, Turku, Finland) where the cells were excited by light of 485 nm wavelength and emitted fluorescence was detected at 535 ± 10 nm. Fluorescence was recorded every 2 s for three minutes following agonist addition. Responses were measured as peak intensity minus basal fluorescence level and were expressed as a percentage of the maximal response obtained to agonist. Data files were analyzed using Hidex Sence software (Hidex, Turku, Finland) and OriginPro 7.5 software (OriginLab, Northampton, MA, USA, for statistical analysis).
# [7] = intramuscular injection to mice (abstract)
substance,measurement,setting,value
"DNWWPKPPHQGPRPPRPRPKP-NH2 [Az, azemiopsin]",phagocytic activity (engulfing ink particles) of peritoneal macrophages,[1],did not significantly change
same,activity against GABAA receptors,[2],no activity
same,activity against 5-HT3 receptors,5-HT3 receptors,no activity
same,IC50,[3],0.18 ± 0.03 µM
same,IC50,[4],1.56 ± 0.37 µM
same,frequency of mutations in the hprt gene,"[5]; Az 2.8 to 2000 μg/mL, 4 h, with or without S9, spontaneous 25.2 ± 1.6",23.5–30.2 × 10^−6
same,mutagenic capacity,"[5]; Az up to 2000 μg/mL, CHO-k1 cells",did not demonstrate any mutagenic capacity
same,decrease of grip strength,male ICR mice; 0.1 mg/kg im,37%
same,average effective dose at the maximum response point,"male ICR mice; 10 min after im injection, male ICR mice",0.09 mg/kg
same,effect on forelimb muscular strength,"male ICR mice; Az 0.01 mg/kg im, n = 6",No significant differences; also recorded: not effective
same,effect on forelimb muscular strength,"male ICR mice; Az 0.03, 0.1 and 0.3 mg/kg im, n = 10",significant decrease
same,time of maximal muscle relaxant effect after administration,"male ICR mice; all doses studied, im, preserved until the 30th minute",10 min
same,duration of muscle relaxant effect,"male ICR mice; depending on the dose, im",25 to 55 min
same,longest period of action,"male ICR mice; dose 0.3 mg/kg im, from the 5th to the 60th minute",55 min
same,average effective dose (muscle relaxant effect),male ICR mice; [7],0.09 mg/kg
same,initial effective dose (muscle relaxant effect),male ICR mice; [7],0.03 mg/kg
same,initial effective dose (muscle relaxant effect),"male ICR mice; single im injection in forelimb muscles, male ICR mice",0.03 mg/kg
same,IC50,[6],2.67 µM and ~3 µM

# From PMC5793121 (Toxins, 2018)
